Laboratory results reported in patent US20090281054A1, “COMPOSITIONS AND METHODS COMPRISING CAPURAMYCIN ANALOGUES” (priority 2008, published 2009).
In brackets after ≈: the same amount, converted by molar mass. Like-named read-outs stand apart in the source and are kept apart here.

Assays:
[1] = system: M. smegmatis (MSMG; MC2155); test: MIC by microdilution method in 7H9 broth; assay type: cell-based; details: Mycolicibacterium smegmatis, MC2155|MC^2155; MSMG MC^2155; 72 hr; read-out: MIC
[2] = system: M. abscessus (MAB; ATCC 700869); test: MIC by microdilution method in 7H9 broth; assay type: cell-based; details: Mycobacteroides abscessus, ATCC700869; MAB 700869; read-out: MIC
[3] = system: M. kansaii (MKN; ATCC12478 & 35775); test: MIC by microdilution method in 7H9 broth; assay type: cell-based, M. kansasii; details: Mycobacterium kansasii, read-out: MIC
MTB-H37Rv = test: Post-antibiotic effect (PAE); assay type: cell-based, Mycobacterium tuberculosis; details: 4 μg/ml, 2 hr of exposure
Experimental: PAE of SQ641. PAE of SQ641 was determined as described (Chan et al. Antimicrob. Agents Chemother., 2004, 48(1), 340-343). At the end of incubation, suspensions were diluted 1/25, and 0.1 ml was injected into each of triplicate BACTEC vials: drug dilution was 1000-fold in the BACTEC vials. Drug carryover controls (to ascertain absence of any carryover drug) consisting of the same MTB suspension as in the test and similar drug dilutions were mixed immediately, diluted 1/25, and 0.1 ml was injected into BACTEC vials. BACTEC vials were incubated at 37° C. and read in a BACTEC TB-460 reader every 24 hr until the cumulative GI in the control reached 999. PAE was calculated from the formula PAE=T−C, where T is the time required for the drug-exposed organisms to reach a cumulative GI of 100 and C is the time required for the controls to reach a cumulative GI of 100.
PAE determines the time required for the organisms to recover following exposure to an antimicrobial agent for a short duration. PAE activities of both SQ641 and INH, each at 4 μg/ml, were investigated with MTB-H37Rv. Following 2 hr of exposure to drugs, the PAE of INH was 17 hr as compared to 55 hr for SQ641. The PAE of SQ641 was over 3 times that of INH.

M. smegmatis = test: Synergy by checkerboard titration (microdilution); assay type: cell-based; details: M. smegmatis
[4] = system: MTB-pSMT1 luciferase reporter strain; test: Activity against slowly replicating (hypoxic) MTB; assay type: cell-based; details: Mycobacterium tuberculosis
MTB inside macrophages = test: Intracellular activity of DMSO-solubilized drug in MTB infected macrophages; assay type: cell-based, Mycobacterium tuberculosis; details: 0.25 μg/ml (2 X MIC); Day 0 RLU 443, Control Day 7 4251
MTB in J774A.1 cells = test: Intracellular activity of SQ641 with efflux pump blockers; assay type: cell-based, Mycobacterium tuberculosis; details: INH 0.25 μg/ml
MTB in J774 cells = test: Intracellular activity of amino acid conjugates; assay type: cell-based, Mycobacterium tuberculosis; details: 0.125 μg/ml; day 0 RLU 775, Control day 7 31700
Experimental: The amino acid conjugates were tested at concentrations of 4 mg/mL and 8 mg/mL compared with a control and isoniazid (INH).
The intracellular activity against MTB by capuramycin amino acid derivatives was tested. Cells J774 were infected with MTB and treated for 7 days with the amino acid derivative. The mean Relative Light Unites (RLU), an estimation of bacterial viability, was measured as described in Snewin et al., Infect. Immun., 1999, 67(9), 4586-4593).

MTB in macrophages = assay type: cell-based, Mycobacterium tuberculosis; details: INH 0.125 μg/ml; day 0 RLU 1397, Control day 7 9075
[5] = system: intracellular MTB (MTBp-SMT1) in J774A.1 macrophages; test: Intracellular activity of SQ641-TPGS micelles; assay type: cell-based, Mycobacterium tuberculosis
MTB = assay type: in vivo, mouse; details: PO, 25 mg/kg, 2 weeks treatment

## NNC(=O)c1ccncc1 [INH, isoniazid, reference compound]
[1]
  MIC: 8 µg/mL (≈ 58.3 µM)
[2]
  MIC: > 32 µg/mL
[3]; ATCC 12478 / ATCC 35775, MKN ATCC35775
  MIC: 1 µg/mL (≈ 7.29 µM)
[3]; MKN ATCC12478
  MIC: 2 µg/mL (≈ 14.6 µM)
MTB-H37Rv
  PAE (post-antibiotic effect): 17 h
M. smegmatis; combination SQ641 + INH
  MIC Combination: 1.0 µg/mL
M. smegmatis; Mycolicibacterium smegmatis, drug alone
  MIC: 8 µg/mL
[4]
  MIC: 0.062 µg/mL (≈ 0.452 µM)
[4]; Hypoxic, […]
  MIC: 0.125 µg/mL (≈ 0.911 µM)
MTB inside macrophages
  Mean RLU at Day 7: 11 RLU
MTB in J774A.1 cells; Table 13, Day 0 RLU 425, Control Day 7 6283
  Mean RLU at Day 7: 127 RLU
MTB in J774A.1 cells; Table 14, Day 0 RLU 811, Control Day 7 3004
  Mean RLU at Day 7: 20 RLU
MTB in J774 cells
  Mean RLU on day 7: 131 RLU
MTB in macrophages
  Mean RLU on day 7: 434 RLU
[5]; Expt 1, one day drug exposure, 0.5 μg/ml, Day 0 RLU 104, CONTROL Day 7 906
  Mean RLU at Day 7: 8 RLU
[5]; Expt 2, four days drug exposure, 0.25 μg/ml, Day 0 RLU 205, CONTROL Day 7 491
  Mean RLU at Day 7: 1 RLU
MTB; Control 3.8 ± 1.9 × 10^8
  Lung CFU ± SD: 1.9 ± 0.8 × 10^7 CFU
MTB; Control 8.58
  Lung Log CFU: 7.28 Log CFU
